In patent US9018258B2, “Substituted 1-benzylcycloalkylcarboxylic acids and the use thereof” (Bayer Intellectual Property GmbH, priority 2010, dated 2015):
pEC50: −log10 of the molar value.

Key:
sGC = target: T1, sGC (Rattus norvegicus, UniProt P20595); experiment: Action at a recombinant guanylate cyclase reporter cell line (CHO reporter cell); format: cell-based; details: CHO reporter cell in vitro
T1 construct: expressed in transfected cells; host or cells: CHO reporter cell
Protocol: The cellular action of the compounds according to the invention is determined at a recombinant guanylate cyclase reporter cell line, as described in F. Wunder et al., Anal. Biochem. 339, 104-112 (2005).

[1] = target: T2, soluble guanylate cyclase (sGC) (Rattus norvegicus, UniProt P20595); experiment: Stimulation of sGC enzyme activity (PPi detection, luciferase); format: biochemical; details: sGC enzyme in vitro; for pEC50: read-out: EC50 (concentration at 50% of maximum efficacy), activating action at the sGC enzyme
T2 construct: made in house; host or cells: Sf9 insect cells (baculovirus)
Protocol: Soluble guanylate cyclase (sGC) converts on stimulation GTP into cGMP and pyrophosphate (PPi). PPi is detected with the aid of the assay described below. The signal produced in the assay increases as the reaction progresses and serves as a measure of the sGC enzyme activity under the given stimulation.
To carry out the assay, 29 μl of enzyme solution [0-10 nM soluble guanylate cyclase (prepared according to Honicka et al., J. Mol. Med. 77, 14-23 (1999)) in 50 mM TEA, 2 mM MgCl2, 0.1% BSA (fraction V), 0.005% Brij®, pH 7.5] are initially introduced into a microplate, and 1 μl of the substance to be tested (as a serially diluted solution in DMSO) is added. The mixture is incubated at room temperature for 10 min. Then 20 μl of detection mix [1.2 nM Firefly Luciferase (Photinus pyralis luciferase, Promega), 29 μM dehydroluciferin (prepared according to Bitler & McElroy, Arch. Biochem. Biophys. 72, 358 (1957)), 122 μM luciferin (Promega), 153 μM ATP (Sigma) and 0.4 mM DTT (Sigma) in 50 mM TEA, 2 mM MgCl2, 0.1% BSA (fraction V), 0.005% Brij®, pH 7.5] are added. The enzyme reaction is started by adding 20 μl of substrate solution [1.25 mM guanosine 5′-triphosphate (Sigma) in 50 mM TEA, 2 mM MgCl2, 0.1% BSA (fraction V), 0.005% Brij®, pH 7.5] and measured continuously in a luminometer. The extent of the stimulation by the substance to be tested can be determined relative to the signal of the unstimulated reaction.
The activation of haem-free guanylate cyclase is examined by addition of 25 μM of 1H-1,2,4-oxadiazolo[4,3-a]quinoxalin-1-one (ODQ) to the enzyme solution and subsequent incubation for 30 minutes and compared to the stimulation of the native enzyme.

GAL4-PPARα = target: T3, GAL4-PPARα (Homo sapiens, UniProt Q07869); experiment: Cellular PPAR transactivation assay, GAL4-PPARα chimera in CHO-K1 cells; format: cell-based; details: for Emax: CHO-K1, maximum effect relative to reference compound (Example 73 of EP 1 452 521-A1 = 100%), read-out: PPARα efficacy; for pEC50: CHO-K1 cells, luciferase reporter, 6 h stimulation
T3 construct: expressed in transfected cells
T3 sequence (Q07869 167-468): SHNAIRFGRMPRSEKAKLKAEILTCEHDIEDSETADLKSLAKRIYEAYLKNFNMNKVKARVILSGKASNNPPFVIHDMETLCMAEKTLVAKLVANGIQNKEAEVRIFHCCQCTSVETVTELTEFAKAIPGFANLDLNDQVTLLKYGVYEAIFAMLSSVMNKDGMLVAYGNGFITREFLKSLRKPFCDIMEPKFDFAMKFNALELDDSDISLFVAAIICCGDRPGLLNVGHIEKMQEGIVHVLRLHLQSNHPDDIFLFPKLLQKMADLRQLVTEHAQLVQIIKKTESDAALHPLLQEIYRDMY
Text: (§1) A cellular assay is used to test for potentially activating properties of the compounds according to the invention with respect to the three human isoforms of the peroxisome proliferator-activated receptors (PPARα, PPARγ and PPARδ).
(§2) Since mammalian cells contain different endogenous nuclear receptors which may complicate an unambiguous interpretation of the results, an established chimera system is used in which the respective ligand binding domain of the human PPAR isoforms is fused to the DNA binding domain of the yeast transcription factor GAL4. The resulting GAL4-PPARα, γ and δ chimeras are co-transfected and stably expressed in CHO cells having a reporter construct.
(§3) The GAL4-PPAR expression constructs contain the ligand binding domain of PPARα (amino acids 167-468), PPARγ (amino acids 203-506) and PPARδ (amino acids 138-442) which are PCR-amplified and cloned into the vector pcDNA3.1. The respective expression vectors already contain the GAL4 DNA binding domain (amino acids 1-147) of the vector pFC2-dbd (Stratagene). The reporter construct, which contains five copies of the GAL4 binding site upstream of a thymidine kinase promoter, expresses firefly luciferase (Photinus pyralis) following activation and binding of GAL4-PPARα, γ or δ.
(§4) The day before the test, CHO-K1 cells (chinese hamster ovary; ATCC CCL-61) each stably expressing one of the above-described GAL4-PPAR chimeras and the luciferase reporter gene construct are sown in medium [Optimem (GIBCO) with 2% activated carbon-purified foetal calf serum (Hyclone), 1.35 mM sodium pyruvate (GIBCO) and 0.2% sodium bicarbonate (GIBCO)] in a density of 1×10^3 cells in 96-well microtitre plates (Greiner) and kept in a cell incubator (96% atmospheric humidity, 5% v/v CO2, 37° C.). On the test day, the substances to be tested are taken up in the medium mentioned above, but without addition of calf serum, and added in various concentrations to the cells. After a stimulation period of 6 h, the luciferase activity is measured using a video camera. The relative light units measured give, as a function of the substance concentration, a sigmoidal stimulation curve. The EC50 values are calculated using the computer programme GraphPad PRISM (Version 3.02). The maximum effect of a test substance in the respective PPAR assay is determined as efficacy in percent in comparison to an appropriate reference compound whose maximum effect is defined as 100%.
(§5) The reference compound selected here was the compound 2-(3-{[(2-chloro-4-propoxybenzoyl)-amino]methyl}-4-ethoxybenzyl)tetrahydrofuran-2-carboxylic acid [Example 73 of EP 1 452 521-A1] which is described in the prior art as a potent pan-PPAR agonist.

GAL4-PPARγ = target: T4, GAL4-PPARγ (Homo sapiens, UniProt P37231); experiment: Cellular PPAR transactivation assay, GAL4-PPARγ chimera in CHO-K1 cells; format: cell-based; details: for Emax: CHO-K1, maximum effect relative to reference compound (Example 73 of EP 1 452 521-A1 = 100%), read-out: PPARγ efficacy; for pEC50: CHO-K1 cells, luciferase reporter, 6 h stimulation
T4 construct: PPARγ (amino acids 203-506); expressed in transfected cells
T4 sequence (P37231 203-505 limits assumed): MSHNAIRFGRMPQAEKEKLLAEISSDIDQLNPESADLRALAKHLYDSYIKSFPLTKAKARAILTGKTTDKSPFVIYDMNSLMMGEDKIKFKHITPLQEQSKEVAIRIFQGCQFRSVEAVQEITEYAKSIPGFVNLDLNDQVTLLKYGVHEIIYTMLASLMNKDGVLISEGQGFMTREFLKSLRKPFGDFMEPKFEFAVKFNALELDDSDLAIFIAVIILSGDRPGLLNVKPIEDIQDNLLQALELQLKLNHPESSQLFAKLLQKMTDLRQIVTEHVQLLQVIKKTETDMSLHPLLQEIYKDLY
Text: as §1, §2, §3, §4, §5

GAL4-PPARδ = target: T5, GAL4-PPARδ (Homo sapiens, UniProt Q03181); experiment: Cellular PPAR transactivation assay, GAL4-PPARδ chimera in CHO-K1 cells; format: cell-based; details: for Emax: CHO-K1, maximum effect relative to reference compound (Example 73 of EP 1 452 521-A1 = 100%), read-out: PPARδ efficacy; for pEC50: CHO-K1 cells, luciferase reporter, 6 h stimulation
T5 construct: PPARδ (amino acids 138-442); expressed in transfected cells
T5 sequence (Q03181 138-441 limits assumed): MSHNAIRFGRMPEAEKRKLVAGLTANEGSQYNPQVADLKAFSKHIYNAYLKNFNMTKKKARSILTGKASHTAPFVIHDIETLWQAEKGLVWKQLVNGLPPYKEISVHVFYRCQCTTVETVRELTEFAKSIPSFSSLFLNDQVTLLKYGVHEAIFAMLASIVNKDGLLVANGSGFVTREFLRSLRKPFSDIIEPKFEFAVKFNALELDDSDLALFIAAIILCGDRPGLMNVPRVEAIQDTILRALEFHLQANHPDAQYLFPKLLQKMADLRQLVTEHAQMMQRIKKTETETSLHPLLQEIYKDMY
Text: as §1, §2, §3, §4, §5

T2 sequence (P19686 whole entry partner): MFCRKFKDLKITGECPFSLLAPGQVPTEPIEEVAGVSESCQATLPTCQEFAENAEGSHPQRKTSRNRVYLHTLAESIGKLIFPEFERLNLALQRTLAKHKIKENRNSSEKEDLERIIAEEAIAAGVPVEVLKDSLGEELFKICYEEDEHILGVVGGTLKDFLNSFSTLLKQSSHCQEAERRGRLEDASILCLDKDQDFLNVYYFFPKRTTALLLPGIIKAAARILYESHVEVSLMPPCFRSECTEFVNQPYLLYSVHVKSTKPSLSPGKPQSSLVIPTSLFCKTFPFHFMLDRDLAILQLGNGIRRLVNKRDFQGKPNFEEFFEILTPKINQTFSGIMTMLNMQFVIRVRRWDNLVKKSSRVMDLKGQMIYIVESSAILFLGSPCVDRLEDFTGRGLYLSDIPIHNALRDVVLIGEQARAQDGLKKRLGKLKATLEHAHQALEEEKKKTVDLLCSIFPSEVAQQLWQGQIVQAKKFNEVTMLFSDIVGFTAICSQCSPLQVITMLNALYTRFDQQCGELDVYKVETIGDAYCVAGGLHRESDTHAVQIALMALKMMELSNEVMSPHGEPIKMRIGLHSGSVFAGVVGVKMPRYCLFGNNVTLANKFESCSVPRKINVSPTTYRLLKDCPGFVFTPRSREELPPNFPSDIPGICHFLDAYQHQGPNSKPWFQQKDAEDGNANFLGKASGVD
T2 sequence (P20595 whole entry): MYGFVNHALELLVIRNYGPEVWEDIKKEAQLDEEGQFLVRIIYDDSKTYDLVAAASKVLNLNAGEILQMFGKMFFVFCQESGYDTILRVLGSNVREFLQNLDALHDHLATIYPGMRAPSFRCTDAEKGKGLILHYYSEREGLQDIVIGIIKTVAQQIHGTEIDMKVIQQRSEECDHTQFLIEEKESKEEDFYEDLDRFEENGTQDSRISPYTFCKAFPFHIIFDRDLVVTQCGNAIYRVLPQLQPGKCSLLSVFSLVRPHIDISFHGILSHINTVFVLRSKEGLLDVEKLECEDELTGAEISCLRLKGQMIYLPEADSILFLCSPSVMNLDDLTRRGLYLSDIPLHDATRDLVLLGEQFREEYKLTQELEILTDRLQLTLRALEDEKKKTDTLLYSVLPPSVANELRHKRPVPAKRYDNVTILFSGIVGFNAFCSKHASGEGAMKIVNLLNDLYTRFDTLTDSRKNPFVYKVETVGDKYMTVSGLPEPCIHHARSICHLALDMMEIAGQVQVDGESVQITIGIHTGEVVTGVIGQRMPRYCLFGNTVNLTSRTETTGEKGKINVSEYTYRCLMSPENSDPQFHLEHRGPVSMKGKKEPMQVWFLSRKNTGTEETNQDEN
T1 sequence (P19686 whole entry partner): as the sequence (P19686 whole entry partner) above
T1 sequence (P20595 whole entry): as the sequence (P20595 whole entry) above

Row | MEC (minimum effective concentration), sGC-activating activity in the CHO reporter cell (sGC) | MEC (minimum effective concentration), activating action at the sGC enzyme [1] | pEC50 [1] | Emax (GAL4-PPARα) | pEC50 (GAL4-PPARα) | Emax (GAL4-PPARγ) | pEC50 (GAL4-PPARγ) | Emax (GAL4-PPARδ) | pEC50 (GAL4-PPARδ) | Compound
1 | 1.7 nM | 3.8 nM | 7.08 | 0% | < 5.00 | 0% | < 5.00 | 0% | < 5.00 | O=C(Nc1cc(CC2(C(=O)O)CC2)ccc1Cl)C(c1ccc(Cl)cc1)C1CCC(F)(F)C1 (single isomer, unassigned) [Example 73, 1-(4-Chloro-3-{[(4-chlorophenyl)(3,3-difluorocyclopentyl)acetyl]amino}benzyl)cyclopropane-carboxylic acid]
2 | 1.7 nM | 3.4 nM | 7.36 | 0% | < 5.00 | 20% | 5.64 | 0% | < 5.00 | CC(C(C(=O)Nc1cc(CC2(C(=O)O)CC2)ccc1Cl)c1ccc(CC(F)(F)F)cc1)C(F)(F)F (single isomer, unassigned) [Example 82, 1-[4-Chloro-3-({4,4,4-trifluoro-3-methyl-2-[4-(2,2,2-trifluoroethyl)phenyl]butanoyl}amino)-benzyl]cyclopropanecarboxylic acid]
3 | 3 nM | 3.9 nM | 7.15 | 0% | < 5.00 | 0% | < 5.00 | 0% | < 5.00 | COC(c1ccc(Cl)c(NC(=O)[C@H](c2ccc(Cl)cc2)[C@@H](C)C(F)(F)F)c1)C1(C(=O)O)CC1 (single isomer, unassigned; (+)) [Example 89]
4 | 1 nM | 2.6 nM | 7.35 | 0% | < 5.00 | 0% | < 5.00 | 0% | < 5.00 | O=C(Nc1cc(CC2(C(=O)O)CC2)ccc1F)[C@H](c1ccc(Cl)cc1)C1CCCC1(F)F (single isomer, unassigned; (+)) [Example 68]
5 | 3 nM | 36 nM | 6.62 | 0% | < 5.00 | 10% | – | 0% | < 5.00 | [2H]C([2H])([2H])OC(c1ccc(Cl)c(NC(=O)[C@H](c2ccc(Cl)cc2)[C@@H](C)C(F)(F)F)c1)C1(C(=O)O)CCC1 (single isomer, unassigned) [Example 105]

Continued, molecule first:

Row | Compound | MEC (minimum effective concentration), sGC-activating activity in the CHO reporter cell (sGC) | MEC (minimum effective concentration), activating action at the sGC enzyme [1] | pEC50 [1] | Emax (GAL4-PPARα) | pEC50 (GAL4-PPARα) | Emax (GAL4-PPARγ) | pEC50 (GAL4-PPARγ) | Emax (GAL4-PPARδ) | pEC50 (GAL4-PPARδ)
6 | O=C(Nc1cc(CC2(C(=O)O)CC2)ccc1F)[C@H](c1ccc(Cl)cc1)C1CCCC1 (single isomer, unassigned) [Example 62] | 1 nM | 2.2 nM | 7.52 | – | – | – | – | – | –
7 | COc1cc([C@@H](C(=O)Nc2cc(CC3(C(=O)O)CC3)ccc2Cl)[C@@H](C)C(F)(F)F)ccc1Cl [Example 43, 1-(4-chloro-3-{[(2S,3R)-2-(4-chloro-3-methoxy-phenyl)-4,4,4-trifluoro-3-methylbutanoyl]amino}-benzyl)cyclopropanecarboxylic acid] | 3 nM | 3.4 nM | 7.62 | 0% | < 5.00 | 10% | 5.74 | 0% | < 5.00
8 | C[C@H]([C@H](C(=O)Nc1cc(CC2(C(=O)O)CC2)ccc1F)c1ccc(Cl)cc1)C(F)(F)F [Example 51, (+)-1-(3-{[(2S,3R)-2-(4-Chlorophenyl)-4,4,4-trifluoro-3-methylbutanoyl]amino}-4-fluorobenzyl)-cyclopropanecarboxylic acid] | 0.3 nM | 3.0 nM | 7.68 | 0% | < 5.00 | 20% | 5.72 | 0% | < 5.00
9 | C[C@H]([C@H](C(=O)Nc1cc(CC2(C(=O)O)CC2)ccc1Cl)c1ccc(Cl)cc1F)C(F)(F)F [Example 32, (+)-1-(4-chloro-3-{[(2S,3R)-2-(4-chloro-2-fluoro-phenyl)-4,4,4-trifluoro-3-methylbutanoyl]-amino}benzyl)cyclopropanecarboxylic acid] | 2.3 nM | 0.9 nM | 8.14 | 0% | < 5.00 | 30% | 5.72 | 0% | < 5.00
